Measurements from the supplement of paper PMC10307832.

Key:
Assay in all cases: relative viability (nuclei count vs DMSO), 5 days (fraction); higher = more cells survive
BI-D1870 + Decitabine = compound: CC(C)CCN1c2nc(Nc3cc(F)c(O)c(F)c3)ncc2N(C)C(=O)C1C [BI-D1870] + Nc1ncn([C@H]2C[C@H](O)[C@@H](CO)O2)c(=O)n1 [Decitabine] (partner 2 µM)
Method in brief: (§1)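 The day after seeding in 1536-well plates, lung cancer cell lines were treated by pin tool with a single drug, or with a fixed anchor-drug dose together with five library-drug doses (not always all listed) in √10 steps. After 5 days, a combined fix-and-stain solution (final 0.05% Triton X-100, 1% formaldehyde, 1 ug/ml Hoechst) was added. Nuclei counted on 4× images gave relative viability as treated counts over vehicle counts, reported as the median of duplicate plates.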

Zebularine + Decitabine = compound: O=c1ncccn1[C@@H]1O[C@H](CO)[C@@H](O)[C@H]1O [Zebularine] + Nc1ncn([C@H]2C[C@H](O)[C@@H](CO)O2)c(=O)n1 [Decitabine] (partner 2 µM)
Method in brief: as §1

BI-D1870 + Foretinib = compound: CC(C)CCN1c2nc(Nc3cc(F)c(O)c(F)c3)ncc2N(C)C(=O)C1C [BI-D1870] + COc1cc2c(Oc3ccc(NC(=O)C4(C(=O)Nc5ccc(F)cc5)CC4)cc3F)ccnc2cc1OCCCN1CCOCC1 [Foretinib] (partner 0.25 µM)
Method in brief: as §1

Zebularine + Navitoclax = compound: O=c1ncccn1[C@@H]1O[C@H](CO)[C@@H](O)[C@H]1O [Zebularine] + CC1(C)CCC(c2ccc(Cl)cc2)=C(CN2CCN(c3ccc(C(=O)NS(=O)(=O)c4ccc(N[C@H](CCN5CCOCC5)CSc5ccccc5)c(S(=O)(=O)C(F)(F)F)c4)cc3)CC2)C1 [Navitoclax] (partner 0.5 µM)
Method in brief: as §1

Cell Line	relative viability (BI-D1870 + Decitabine; first compound 0.04 µM)	relative viability (BI-D1870 + Decitabine; first compound 0.1265 µM)	relative viability (BI-D1870 + Decitabine; first compound 0.4 µM)	relative viability (BI-D1870 + Decitabine; first compound 1.265 µM)	relative viability (BI-D1870 + Decitabine; first compound 4 µM)	relative viability (Zebularine + Decitabine; first compound 1 µM)	relative viability (Zebularine + Decitabine; first compound 3.162 µM)	relative viability (Zebularine + Decitabine; first compound 10 µM)	relative viability (Zebularine + Decitabine; first compound 31.62 µM)	relative viability (Zebularine + Decitabine; first compound 100 µM)	relative viability (BI-D1870 + Foretinib; first compound 0.04 µM)	relative viability (BI-D1870 + Foretinib; first compound 0.1265 µM)	relative viability (BI-D1870 + Foretinib; first compound 0.4 µM)	relative viability (BI-D1870 + Foretinib; first compound 1.265 µM)	relative viability (BI-D1870 + Foretinib; first compound 4 µM)	relative viability (Zebularine + Navitoclax; first compound 1 µM)	relative viability (Zebularine + Navitoclax; first compound 3.162 µM)	relative viability (Zebularine + Navitoclax; first compound 10 µM)	relative viability (Zebularine + Navitoclax; first compound 31.62 µM)	relative viability (Zebularine + Navitoclax; first compound 100 µM)
NCI-H3122	0.51	0.333	0.478	0.427	0.508	0.507	0.475	0.411	0.411	0.532	0.898	0.942	0.96	0.974	0.889	1.06	1.02	0.943	1.08	1.02
PC-3 [JPC-3]	0.867	0.867	0.849	0.944	0.728	0.781	0.817	0.755	0.842	0.659	0.999	1.01	1.02	1.06	0.961	0.751	0.749	0.603	0.748	0.583
PC-14	0.203	0.148	0.278	0.198	0.223	0.193	0.135	0.117	0.0981	0.0826	0.936	0.865	0.908	0.952	0.945	1.07	1.06	0.346	0.113	0.129
RERF-LC-KJ	0.661	0.671	0.675	0.745	0.519	0.828	0.733	0.587	0.85	0.751	0.885	0.842	0.878	0.846	0.909	–	1.08	0.507	0.939	0.968
SK-LU-1	0.653	0.607	0.652	0.604	0.536	0.583	0.652	0.478	0.675	0.495	0.86	0.676	0.739	0.798	0.525	0.965	0.868	0.435	0.61	0.306
SK-MES-1	0.395	0.337	0.332	0.395	0.304	0.442	0.397	0.321	0.286	0.261	0.871	0.77	0.706	0.868	0.769	1.41	1.32	0.781	0.526	0.33
SW 1573	0.653	0.497	0.473	0.372	0.26	0.525	0.424	0.341	0.582	0.555	0.958	0.783	0.853	0.937	0.881	1.04	0.735	0.6	0.947	0.529
UMC-11	0.581	0.466	0.669	0.674	0.622	0.557	0.604	0.589	0.586	0.527	1.1	0.986	1.11	0.897	0.198	0.316	0.328	0.265	0.344	0.238
